Assay results: US20250188060A1, “ALPHA1A-ADRENERGIC RECEPTOR AGONISTS AND METHODS OF USE” (CuraSen Therapeutics, Inc., priority 2022, published 2025)
Counter-ions that a name gives are not always drawn. Like-named read-outs stand apart in the source and are kept apart here.

How the values were obtained:
α1A-ARs = biological target: T1, α1A-ARs (Homo sapiens, UniProt P35348); assay: Calcium flux assay (Calcium 6 dye) in cells expressing an α1-AR; type: cell-based; conditions: for Emax: read-out: Average Emax (% epi); for EC50: read-out: Average pEC50 (converted)
T1 sequence (P35348 1-466): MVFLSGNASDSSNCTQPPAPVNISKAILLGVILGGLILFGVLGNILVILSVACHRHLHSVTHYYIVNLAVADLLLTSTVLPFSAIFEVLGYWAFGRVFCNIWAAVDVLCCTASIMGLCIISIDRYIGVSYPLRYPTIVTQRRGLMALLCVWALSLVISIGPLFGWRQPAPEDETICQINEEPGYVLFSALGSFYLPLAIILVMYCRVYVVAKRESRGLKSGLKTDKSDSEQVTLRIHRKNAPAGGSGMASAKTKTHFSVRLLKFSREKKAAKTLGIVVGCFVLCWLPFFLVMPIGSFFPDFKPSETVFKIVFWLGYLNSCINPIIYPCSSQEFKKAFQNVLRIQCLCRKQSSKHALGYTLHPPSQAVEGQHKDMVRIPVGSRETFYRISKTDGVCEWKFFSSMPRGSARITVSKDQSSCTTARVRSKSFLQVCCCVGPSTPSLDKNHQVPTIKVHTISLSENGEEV
Text: Calcium flux experimental design: alpha-1 adrenergic receptors (α1-ARs) couple to Gq proteins, which results in downstream activation of phospholipase C and release of calcium from intracellular stores. Intracellular calcium increase upon α1-AR activation can be detected by Calcium 6 dye.
Cell preparation: cells expressing an α1-AR were washed in warmed phosphate-buffered saline to remove medium and harvested using versene (Caisson Labs, catalog #EDL01).
Media was removed from cells by tapping plates upside-down on absorbent wipes, followed by 15 second upside-down 50×g centrifugation, again on absorbent wipes. 12 μL cell dye solution was added to cells using a reagent dispenser (Integra viaFILL) and cells were incubated for 90 minutes at 37° C., 5% CO2.
Compound preparation: candidate alpha-adrenergic compounds, dissolved to 10 mM in DMSO, were diluted in assay buffer (HBSS/HEPES containing 2 mM CaCl2) and 2 mM probenecid sodium salt). […] On all assay plates, vehicle (DMSO) and positive control (10 μM epinephrine) conditions were included on the plate, as well as a dose-response curve of epinephrine. […] 384 well compound plates were centrifuged briefly at 250×g, sealed (Axygen PCR-SP) and incubated at 37° C. until the 90 minute cell dye incubation was complete.
Calcium 6 stained cells and 384 well compound plates were loaded onto the Flexstation and incubated on the machine for 5 minutes before initiating the assay.
For each assay well, baseline Calcium 6 fluorescence was detected for 18 seconds prior to 12 μL compound addition at 12 μL per second. Changes in Calcium 6 fluorescence were detected for a further 22 seconds, for a total read time of 40 seconds. All detection was performed with medium gain sensitivity, bottom read, with 6 flashes per read.
Data analysis: for calcium flux, analysis of maximum change from baseline over the 40-second read time was determined using Softmax Pro and data was exported as raw text files. Potency estimates (EC50) were derived from dose response curves (maximum change from baseline versus the log concentration of test compound) fit by four-parameter nonlinear regression using Graphpad Prism. Efficacy was determined by comparing the magnitude of the test compound signal window (fitted curve max−min) with the signal window of the full agonist control, epinephrine. […] All experiments were repeated a minimum of three times, with the average (mean) potency and maximum effect relative to the within-plate full agonist dose-response comparator reported.

α1A-adrenergic receptor [1] = biological target: T2, α1A-adrenergic receptor (Homo sapiens, UniProt P35348); conditions: as compared to noradrenaline; FLIPR assay; Blue et al., Table 1; cited from earlier work
T2 sequence (P35348 1-466): T1 sequence (P35348 1-466)

α1A-adrenergic receptor [2] = biological target: T2, α1A-adrenergic receptor; conditions: as compared to noradrenaline; InsPs accumulation assay; Blue et al., Table 1; cited from earlier work
[3] = α1A-AR calcium flux, mean of at least three experiments
[4] = α1A-AR calcium flux, relative to full agonist epinephrine, mean of at least three experiments

| Compound | EC50 (α1A-ARs; [3]) [nM] | Emax (α1A-ARs; [4]) [%] | Emax (α1A-ARs) [%] | intrinsic activity (α1A-adrenergic receptor [1]) | intrinsic activity (α1A-adrenergic receptor [2]) |
| --- | --- | --- | --- | --- | --- |
| Clc1cccc2c1c(Cl)nn2CC1=NCCN1 [Compound 45] | > 1000 |  | < 20 |  |  |
| Cc1cc(Cl)cc2c(Cl)nn(CC3=NCCN3)c12 [Compound 46] | 10 to 977 |  | > 61 |  |  |
| CC(C)c1cccc2c(Cl)nn(CC3=NCCN3)c12 [Compound 47] | 10 to 977 |  | > 61 |  |  |
| Cc1cc(F)cc2c(Cl)nn(CC3=NCCN3)c12 [Compound 50] | > 1000 |  | < 20 |  |  |
| Cc1cccc2c(C(F)(F)F)nn(CC3=NCCN3)c12 [Compound 61] | > 1000 |  | < 20 |  |  |
| Cc1cccc2c(C(C)(F)F)nn(CC3=NCCN3)c12 [Compound 62] | 10 to 977 |  | > 61 |  |  |
| FC(F)(F)c1cc(Cl)cc2c(Cl)nn(CC3=NCCN3)c12 [Compound 64] | > 1000 | < 20 |  |  |  |
| Fc1cc(C(F)(F)F)c2c(c1)c(Cl)nn2CC1=NCCN1 [Compound 65] | 10 to 977 | > 61 |  |  |  |
| CC(F)(F)c1cc(Cl)cc2c(Cl)nn(CC3=NCCN3)c12 [Compound 72] | 10 to 977 | > 61 |  |  |  |
| Cc1cc(C(F)(F)F)cc2c(Cl)nn(CC3=NCCN3)c12 [Compound 73] | 10 to 977 | > 61 |  |  |  |
| CC(F)(F)c1cc(F)cc2c(Cl)nn(CC3=NCCN3)c12 [Compound 75] | 10 to 977 | 21 to 60 |  |  |  |
| Cc1cc(F)cc2c(N3CCCC3)nn(CC3=NCCN3)c12 [Compound 77] | 10 to 977 | 21 to 60 |  |  |  |
| Cc1c(OCC2=NCCN2)ccc(Cl)c1NS(C)(=O)=O [RO 115-1240 (dabuzalgron) HCl salt, dabuzalgron] |  |  |  | 0.51 | 0.27 |
| Cc1c(OCC2=NCCN2)ccc(Cl)c1NS(C)(=O)=O [RO 115-1240 (dabuzalgron) free base, dabuzalgron] |  |  |  |  | 0.31 |

Second part, led by results:

| EC50 (α1A-ARs; [3]) [nM] | Emax (α1A-ARs; [4]) [%] | Compound | Emax (α1A-ARs) [%] | intrinsic activity (α1A-adrenergic receptor [1]) | intrinsic activity (α1A-adrenergic receptor [2]) |
| --- | --- | --- | --- | --- | --- |
| 10 to 977 | 21 to 60 | Clc1nn(CC2=NCCN2)c2c(-c3ccccn3)cccc12 [Compound 48] |  |  |  |
| 10 to 977 | 21 to 60 | Clc1cccc2c(-c3ccncc3)nn(CC3=NCCN3)c12 [Compound 49] |  |  |  |
| 10 to 977 | 21 to 60 | Clc1cccc2c(-c3ccccn3)nn(CC3=NCCN3)c12 [Compound 51] |  |  |  |
| > 1000 | < 20 | Clc1nn(CC2=NCCN2)c2c(-c3cnccn3)cccc12 [Compound 52] |  |  |  |
| > 1000 | 21 to 60 | FC(F)(F)Cc1cccc2c(Cl)nn(CC3=NCCN3)c12 [Compound 53] |  |  |  |
| > 1000 | 21 to 60 | Clc1cccc2c(C3=CCOCC3)nn(CC3=NCCN3)c12 [Compound 54] |  |  |  |
| > 1000 | < 20 | Clc1cccc2c(-c3ncco3)nn(CC3=NCCN3)c12 [Compound 55] |  |  |  |
| > 1000 | < 20 | Clc1cccc2c(N3CCCC3)nn(CC3=NCCN3)c12 [Compound 56] |  |  |  |
| 10 to 977 | > 61 | Clc1cccc2c(-n3cccc3)nn(CC3=NCCN3)c12 [Compound 58] |  |  |  |
| > 1000 | < 20 | Clc1nn(CC2=NCCN2)c2c(-c3ccon3)cccc12 [Compound 59] |  |  |  |
| > 1000 | > 61 | Clc1cccc2c(-n3cccn3)nn(CC3=NCCN3)c12 [Compound 60] |  |  |  |
| 10 to 977 | > 61 | Clc1cccc2c(-c3ccon3)nn(CC3=NCCN3)c12 [Compound 63] |  |  |  |
| 10 to 977 | 21 to 60 | Cc1cc(Cl)cc2c(N3CCCC3)nn(CC3=NCCN3)c12 [Compound 66] |  |  |  |
| > 1000 | 21 to 60 | Clc1nn(CC2=NCCN2)c2c(N3CCCC3)cccc12 [Compound 67] |  |  |  |
| > 1000 | < 20 | Cc1cccc2c(N3CCCCC3)nn(CC3=NCCN3)c12 [Compound 68] |  |  |  |
| > 1000 | < 20 | Cc1cc(Cl)cc2c(N3CCCCC3)nn(CC3=NCCN3)c12 [Compound 69] |  |  |  |
| 10 to 977 | 21 to 60 | Clc1nn(CC2=NCCN2)c2c(N3CCCCC3)cccc12 [Compound 70] |  |  |  |
| > 1000 | < 20 | FC(F)(F)c1cccc2c(N3CCCC3)nn(CC3=NCCN3)c12 [Compound 71] |  |  |  |
| > 1000 | 21 to 60 | CC(F)(F)c1cccc2c(N3CCCC3)nn(CC3=NCCN3)c12 [Compound 74] |  |  |  |
